Source: US6468983B2, “RNase L activators and antisense oligonucleotides effective to treat telomerase-expressing malignancies” (The Cleveland Clinic Foundation, priority 1997, dated 2002)

Key:
[1] = test system: prostate tumor cell line DU145; assay: Viable cell count, daily oligonucleotide plus lipofectamine; format: cell-based, human; conditions: DU145, 0.5 micromolar daily plus lipofectamine
Procedure: (§1) Cells (10,000/well) were seeded on 96 well tissue culture dishes, and treated every 24 hours. A 10× concentrated mixture of oligonucleotides plus lipofectamine in water was prepared containing 5 micromolar oligonucleotide and 80 microgram per ml lipofectamine™ (Gibco/BRL) and incubated for 10 min at room temperature. Media was removed from the cells, 10 microliters of the oligonucleotide/lipofectamine mixture was added directly to the cultured cells followed by 90 microliters of media plus serum. The media was changed with oligonucleotide/lipofectamine treatments every 24 h. Cells were passaged when the control cells reached confluency, and viable cells were counted after staining with Trypan Blue (GibcoBRL). The numbers of cells treated only with lipofectamine were used as the control to calculate percentages of cell survival or viability.
(§2) Similarly, the viability of the breast cancer cell line, MDA468, was reduced by 64% by SpA4-anti-hTR, while the control oligonucleotides reduced cell viability by <20% (FIG. 6). Viability of the human melanoma cell line, A375, was reduced by 43% in three days by SpA4-anti-hTR, while the control oligonucleotides had no effect (FIG. 7). […] Viability of a third human melanoma cell line, SK-MEL-5, was reduced by 43% by SpA4-anti-hTR, with minimal effects by the control oligonucleotides (FIG. 7). Two prostate tumor cells lines, PC3 and DU145, were suppressed by SpA4-anti-hTR treatments by 45% and 60%, respectively (FIGS. 6 and 10). […] The viability of the malignant glioma cell line, U373, was reduced by about 60% in 3 days, with intermediate effects by the control oligonucleotides (FIG. 6). Therefore, the proliferation and survival of every tumor cell type tested was inhibited by SpA4-anti-hTR. […] In contrast, there was no apoptosis detected in the control cells treated with lipofectamine without oligonucleotide (FIG. 12 upper panel).

[2] = test system: prostate tumor cell line PC3; assay: as above; format: cell-based, human; conditions: PC3, 0.5 micromolar daily plus lipofectamine
Procedure: as §1, §2

[3] = test system: breast cancer cell line, MDA468; assay: as above; format: cell-based, human; conditions: MDA468, 0.5 micromolar daily plus lipofectamine
Procedure: as §1, §2

[4] = test system: renal cell carcinoma cell line, RCC; assay: as above; format: cell-based, human; conditions: 0.5 micromolar daily plus lipofectamine
Procedure: as §1, §2

[5] = test system: normal human lung cell line, WI 38; assay: as above; format: cell-based; conditions: WI 38, 0.5 micromolar daily plus lipofectamine, 8 days
Procedure: as §1
(§3) For the experiments described below, lipofectamine was used to enhance the uptake of the oligonucleotides into cells (Williams et al., 1996, Leukemia 10:[…]). […] Using this protocol for 8 days, SpA4-anti-hTR reduced cell viability by 9% and 35% in the normal human lung cell line, WI 38, and in normal diploid human fibroblasts (MRC5), respectively, while causing a 90% reduction in the viability of U373 cells.

[6] = test system: normal diploid human fibroblasts (MRC5); assay: as above; format: cell-based; conditions: MRC5, 0.5 micromolar daily plus lipofectamine, 8 days
Procedure: as §1, §3

U251-MG tumors = assay: In situ end-labeling (TUNEL) of DNA in subcutaneous xenografts; format: in vivo, nude mice; conditions: 5 nmol every day for 7 days
Text: FIG. 14. In situ end-labeling of DNA in subcutaneous xenografts of nude mice. After treatment with oligonucleotides (5 nmol, every day) for 7 days, the mice were sacrificed and the subcutaneous mass was removed, frozen, and sectioned on a cryostat. The tumor specimens from U251-MG cells were counterstained by hematoxylin and eosin following the TUNEL technique. Arrows show representatives of tumor cells positive for DNA fragmentation (×400). (above) spA4-anti-(M6)hTR, 7 Day; (below) spA4-anti-hTR, 7 Day.
To further determine whether treatment with oligonucleotides induced apoptosis, tumor cells and tissues were stained by the terminal deoxynucleotidyl transferase (TdT)-mediated DUTP nick end labeling (TUNEL) technique using Apo-Tag kit (peroxidase conjugated) (Oncor Inc., Gaithersburg, Md.). The staining of apoptotic cells was done on U373MG cells. Oligonucleotides with lipofectamine was added to the cells every day. The final concentrations were 0.5 micromolar and 8 microgram/ml for oligo and lipofectamine, respectively. […]
U251-MG and U373 MG tumor cells (1.0×10^6 cells in 0.1 ml serum free DMEM and 0.1 ml Matrigel) were injected subcutaneously into the right flank of 8-12 week-old female Balb/c nude mice (5 mice for each treatment group). Tumor growth was monitored using calipers every 2- or 3-days. Tumor volume (V) was calculated as (L×W^2)/2, where L=length (mm) and W=width (mm). […]

“Sp5′A2′p(5′A2p)3-[(Bu)p]2-5′GCG CGG GGA GCA AAA GCA C3′-3′T5′ (antisense GCGCGGGGAGCAAAAGCAC; 5'-thiophosphate 2-5A tetramer, butanediol linkers, 3'-3'T cap, chemistry not fully specified) [spA4-anti-hTR, 2-5A tetramer linked by butanediol linkers to 19-mer antisense against human telomerase RNA nucleotides 76 to 94]” was tested, and the “effect on growth/viability (in words)” value [1] was “specifically suppressed growth”, the suppression of cells [1] was 60% and the “effect on growth/viability (in words)” value [2] was “specifically suppressed growth”. The suppression of cells [2] was 45%, the “effect on growth (in words)” value [3] was “specifically suppressed growth” and the reduction in viability [3] was 64%. For the same substance, the “effect on growth/viability (in words)” value ([4]; 3 days) was “specifically suppressed growth”, the reduction in viability ([4]; three days) was 61% and the “reduction in cell viability” value [5] was 9%. The “reduction in cell viability” value [6] was 35% and the “apoptotic cells observed in tumors (TUNEL)” value (U251-MG tumors) was “many apoptotic cells”.
